From ChEMBL document CHEMBL3227934, “Cardioselectivity of beta-adrenoceptor blocking agents 1. 1-[(4-Hydroxyphenethyl)amino]-3-(aryloxy)propan-2-ols” (J Med Chem, 1979) come the findings set out here.

Structures are written as SMILES.

One test is filed under the species Rattus norvegicus. Put plainly: Cardio selectivity ratio of Kapp for beta2 adrenergic receptor in rat lung muscle to Kapp for beta1 adrenergic receptor in rat ventricular muscle.
Test [1] has as its target Beta-1 adrenergic receptor (Rattus norvegicus) (UniProt P18090).
Description: Displacement of [3H]DHA from beta1 adrenergic receptor in rat ventricular muscle by competitive binding assay
The target in test [2] is Beta-2 adrenergic receptor (Rattus norvegicus) (UniProt P10608).
Chain of Beta-2 adrenergic receptor (Rattus norvegicus) (P10608 whole entry, looked up): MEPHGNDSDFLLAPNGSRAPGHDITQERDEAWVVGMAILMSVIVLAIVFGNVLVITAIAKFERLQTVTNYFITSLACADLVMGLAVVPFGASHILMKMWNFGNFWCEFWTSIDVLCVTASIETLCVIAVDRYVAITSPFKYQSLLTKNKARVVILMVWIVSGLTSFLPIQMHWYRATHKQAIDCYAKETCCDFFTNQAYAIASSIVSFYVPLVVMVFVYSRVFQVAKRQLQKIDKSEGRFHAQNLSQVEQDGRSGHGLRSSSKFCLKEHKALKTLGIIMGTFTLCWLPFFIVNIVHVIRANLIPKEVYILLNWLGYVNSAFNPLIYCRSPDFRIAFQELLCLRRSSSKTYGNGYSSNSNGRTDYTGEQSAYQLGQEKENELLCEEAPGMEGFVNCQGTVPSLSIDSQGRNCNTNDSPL
Description: Displacement of [3H]DHA from beta2 adrenergic receptor in rat lung muscle by competitive binding assay

Chain of Beta-1 adrenergic receptor (Rattus norvegicus) (P18090 whole entry, looked up): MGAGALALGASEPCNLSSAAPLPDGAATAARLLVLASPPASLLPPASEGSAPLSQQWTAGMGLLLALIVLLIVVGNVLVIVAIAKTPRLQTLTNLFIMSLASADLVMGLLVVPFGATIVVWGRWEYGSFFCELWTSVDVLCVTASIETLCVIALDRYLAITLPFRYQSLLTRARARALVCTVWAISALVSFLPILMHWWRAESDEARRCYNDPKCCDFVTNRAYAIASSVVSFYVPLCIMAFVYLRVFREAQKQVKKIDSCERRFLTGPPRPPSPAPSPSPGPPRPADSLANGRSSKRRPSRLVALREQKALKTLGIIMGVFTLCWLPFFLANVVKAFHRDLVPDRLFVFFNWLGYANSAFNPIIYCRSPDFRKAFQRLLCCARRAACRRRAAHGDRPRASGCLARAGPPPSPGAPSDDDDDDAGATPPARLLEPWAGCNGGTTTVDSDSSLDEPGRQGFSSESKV

Consider `C=CCc1ccccc1OCC(O)CNCCc1ccc(O)cc1` (centres undefined), for which, in the test listed under Rattus norvegicus, the Ratio stood at 1.3. The Kapp in test [1] came out at 0.2 µM; in test [2], 0.27 µM.

For the compound `CCCCCC(=O)Nc1ccc(OCC(O)CNCCc2ccc(O)cc2)c(Cl)c1` (centres undefined), in the test listed under Rattus norvegicus, the Ratio amounted to 5. Also, the Kapp in test [1] was found to be 2.7 µM; in test [2] it was 14 µM.

Consider `CC(=O)Nc1ccccc1OCC(O)CNCCc1ccc(O)cc1` (centres undefined), for which the Ratio in the test listed under Rattus norvegicus was found to be 7.6. In addition, the Kapp in test [1] came to 2.1 µM; in test [2] it was 16 µM.

With `CCCCCC(=O)Nc1ccc(OCC(O)CNCCc2ccc(OC)c(OC)c2)cc1` (centres undefined), the Ratio in the test listed under Rattus norvegicus worked out at 77. Further, the values for the Kapp in test [1] and in test [2] were 0.35 µM and 27 µM, respectively.

Turning to `C=CCc1ccccc1OCC(O)CNC(C)C` (racemic), the Ratio in the test listed under Rattus norvegicus was found to be 2.6. The Kapp in test [1] came out at 0.0077 µM; in test [2] it was 0.02 µM.

Regarding `CC(C)(C)NCC(O)COc1cccc2c1CCCC2=O` (centres undefined), the Ratio in the test listed under Rattus norvegicus was 1.1. The Kapp in test [1] was 0.015 µM; in test [2], 0.017 µM.

For the compound `CCCCCC(=O)Nc1ccc(OCC(O)CNCCc2ccc(O)cc2)cc1` (centres undefined), the Ratio in the test filed under Rattus norvegicus turned out to be 10. Moreover, the Kapp in test [1] turned out to be 3.9 µM; in test [2], 39 µM.

As to `CC(C)NCC(O)COc1ccccc1` (centres undefined), in the test filed under Rattus norvegicus, the Ratio came to 1.5. Moreover, the Kapp in test [1] is 0.24 µM; in test [2], 0.37 µM.

Take `O=C1CCCc2c(OCC(O)CNCCc3ccc(O)cc3)cccc21` (centres undefined): in the test listed under Rattus norvegicus, the Ratio was 1.5. The Kapp worked out at 0.37 µM in test [1] and 0.56 µM in test [2].

Consider `CCCCCC(=O)Nc1ccc(OCC(O)CNC(C)C)cc1` (centres undefined), for which the Ratio in the test filed under Rattus norvegicus amounted to 16. Moreover, the figures for the Kapp in test [1] and in test [2] were 2.2 µM and 34 µM, respectively.

The compound `CC(C)NCC(O)COc1cccc2[nH]ccc12` (racemic) displayed a Kapp in test [1] of 0.014 µM.

`COc1ccc(CCNCC(O)COc2ccc(NC(C)=O)cc2)cc1OC` (centres undefined): the Ratio in the test listed under Rattus norvegicus came to 32. Further, the Kapp in test [1] was determined as 7 µM; in test [2] it was 224 µM.

With `CC(=O)Nc1ccc(OCC(O)CNC(C)C)cc1` (racemic), the Ratio in the test filed under Rattus norvegicus was 17. Also, the Kapp in test [1] came out at 18 µM; in test [2], 313 µM.

Consider `COc1ccc(CCNCC(O)COc2ccccc2)cc1OC` (centres undefined), for which the Ratio in the test filed under Rattus norvegicus was 4.7. Besides, the Kapp in test [1] came out at 0.38 µM; in test [2], 1.8 µM.

With `CCCCCC(=O)Nc1ccc(OCC(O)CNCCc2ccc(OC)c(OC)c2)c(Cl)c1` (centres undefined), in the test listed under Rattus norvegicus, the Ratio worked out at 53. Besides, the figures for the Kapp in test [1] and in test [2] were 0.32 µM and 17 µM, respectively.

`CC(=O)Nc1ccc(OCC(O)CNCCc2ccc(O)cc2)cc1` (centres undefined): in the test filed under Rattus norvegicus, the Ratio stood at 4.9. In addition, the Kapp in test [1] is 18 µM; in test [2] it was 88 µM.

For `Oc1ccc(CCNCC(O)COc2ccccc2)cc1` (centres undefined), the Ratio in the test filed under Rattus norvegicus was found to be 0.3. The Kapp in test [1] was 0.7 µM; in test [2], 0.24 µM.
